# According to patent US20260242330A1, “USE OF AN AMANTADINE MONONITRATE COMPOUND IN MANUFACTURE OF A MEDICAMENT FOR THE PREVENTION AND TREATMENT OF HYPERTENSION” (GUANGZHOU MAGPIE PHARMACEUTICALS CO., LTD., priority 2022, published 2026):
# Experiments:
# [1] = system: blood pressure of subjects; assay: Effect of single administration of MN-08 on blood pressure of subjects (clinical trial); type: in vivo, human
# Text: All subjects in the following embodiments have signed informed consent forms, which comply with medical ethics regulations. According to the relevant provisions of Chinese Guidelines for the Prevention and Treatment of Hypertension (2018 Revision), the values measured for hypertension are the average blood pressure measured three times on a different day without the use of antihypertensive drugs. Therefore, in this embodiment, the baseline blood pressure of the subjects before administration is set as the average blood pressure measured at three different times: screening period, occupancy period, and 1 hour before administration, as shown in Tables 1 to 3.
# In the clinical trial of amantadine mononitrate compound MN-08, it is investigated the effect of MN-08 on blood pressure in subjects. The experiments were carried out to analyze the blood pressure status of subjects in both the single dose and multiple dose groups.
# During a single administration, each dose group is required to fast for at least 10 hours before administration, without water deprivation overnight, and on the day of administration, the medication is taken on an empty stomach at around 8 a.m., with 240 mL of water administered.
# [2] = system: blood pressure in subjects with a DP≥90 mmHg; assay: Effect of MN-08 on blood pressure in subjects with a DP≥90 mmHg; type: in vivo, human; settings: single or multiple administration as in Example 2
# Text: From this, it can be seen that making diastolic pressure drop more than systolic pressure drop is the characteristic of MN-08.
smiles,measurement,setting,value
CCC12CC3CC(N)(C1)CC(CO[N+](=O)[O-])(C3)C2 (stereo not drawn) [MN-08],DP,"[1]; Subject 7, 78 mg single dose, 12 hrs after adm. (D 1), baseline 74 mmHg",60 mmHg
same,SP,"[1]; Subject 7, 78 mg single dose, 12 hrs after adm. (D 1), baseline 106 mmHg",102 mmHg
same,DP (reduce amplitude),"[1]; Subject 7, 78 mg single dose, 12 hrs after adm. (D 1), vs baseline 74 mmHg",−18.9%
same,SP (reduce amplitude),"[1]; Subject 7, 78 mg single dose, 12 hrs after adm. (D 1), vs baseline 106 mmHg",−3.8%
same,DP,"[1]; Subject 8, 96 mg single dose, 6 hrs after adm. (D 1), baseline 69 mmHg",51 mmHg
same,SP,"[1]; Subject 8, 96 mg single dose, 6 hrs after adm. (D 1), baseline 101 mmHg",79 mmHg
same,DP (reduce amplitude),"[1]; Subject 8, 96 mg single dose, 6 hrs after adm. (D 1), vs baseline 69 mmHg",−26.1%
same,SP (reduce amplitude),"[1]; Subject 8, 96 mg single dose, 6 hrs after adm. (D 1), vs baseline 101 mmHg",−21.8%
same,DP,"[1]; Subject 8, 96 mg single dose, 12 hrs after adm. (D 1), baseline 69 mmHg",61 mmHg
same,SP,"[1]; Subject 8, 96 mg single dose, 12 hrs after adm. (D 1), baseline 101 mmHg",87 mmHg
same,DP (reduce amplitude),"[1]; Subject 8, 96 mg single dose, 12 hrs after adm. (D 1), vs baseline 69 mmHg",−11.6%
same,SP (reduce amplitude),"[1]; Subject 8, 96 mg single dose, 12 hrs after adm. (D 1), vs baseline 101 mmHg",−13.8%
same,DP,"[1]; Subject 9, 96 mg single dose, 6 hrs after adm. (D 1), baseline 78 mmHg",63 mmHg
same,SP,"[1]; Subject 9, 96 mg single dose, 6 hrs after adm. (D 1), baseline 121 mmHg",105 mmHg
same,DP (reduce amplitude),"[1]; Subject 9, 96 mg single dose, 6 hrs after adm. (D 1), vs baseline 78 mmHg",−19.2%
same,SP (reduce amplitude),"[1]; Subject 9, 96 mg single dose, 6 hrs after adm. (D 1), vs baseline 121 mmHg",−13.2%
same,DP,"[1]; Subject 9, 96 mg single dose, 12 hrs after adm. (D 1), baseline 78 mmHg",68 mmHg
same,SP,"[1]; Subject 9, 96 mg single dose, 12 hrs after adm. (D 1), baseline 121 mmHg",103 mmHg
same,DP (reduce amplitude),"[1]; Subject 9, 96 mg single dose, 12 hrs after adm. (D 1), vs baseline 78 mmHg",−12.8%
same,SP (reduce amplitude),"[1]; Subject 9, 96 mg single dose, 12 hrs after adm. (D 1), vs baseline 121 mmHg",−14.8%
same,DP,"[1]; Subject 10, 114 mg single dose, 6 hrs after adm. (D 1), baseline 75 mmHg",62 mmHg
same,SP,"[1]; Subject 10, 114 mg single dose, 6 hrs after adm. (D 1), baseline 115 mmHg",92 mmHg
same,DP (reduce amplitude),"[1]; Subject 10, 114 mg single dose, 6 hrs after adm. (D 1), vs baseline 75 mmHg",−17.3%
same,SP (reduce amplitude),"[1]; Subject 10, 114 mg single dose, 6 hrs after adm. (D 1), vs baseline 115 mmHg",−20.0%
same,DP,"[1]; Subject 10, 114 mg single dose, 12 hrs after adm. (D 1), baseline 75 mmHg",57 mmHg
same,SP,"[1]; Subject 10, 114 mg single dose, 12 hrs after adm. (D 1), baseline 115 mmHg",90 mmHg
same,DP (reduce amplitude),"[1]; Subject 10, 114 mg single dose, 12 hrs after adm. (D 1), vs baseline 75 mmHg",−24.0%
same,SP (reduce amplitude),"[1]; Subject 10, 114 mg single dose, 12 hrs after adm. (D 1), vs baseline 115 mmHg",−21.7%
same,DP,"[1]; Subject 11, 114 mg single dose, 6 hrs after adm. (D 1), baseline 85 mmHg",68 mmHg
same,SP,"[1]; Subject 11, 114 mg single dose, 6 hrs after adm. (D 1), baseline 126 mmHg",119 mmHg
same,DP (reduce amplitude),"[1]; Subject 11, 114 mg single dose, 6 hrs after adm. (D 1), vs baseline 85 mmHg",−20.0%
same,SP (reduce amplitude),"[1]; Subject 11, 114 mg single dose, 6 hrs after adm. (D 1), vs baseline 126 mmHg",−5.6%
same,DP,"[1]; Subject 11, 114 mg single dose, 12 hrs after adm. (D 1), baseline 85 mmHg",68 mmHg
same,SP,"[1]; Subject 11, 114 mg single dose, 12 hrs after adm. (D 1), baseline 126 mmHg",105 mmHg
same,DP (reduce amplitude),"[1]; Subject 11, 114 mg single dose, 12 hrs after adm. (D 1), vs baseline 85 mmHg",−20.0%
same,SP (reduce amplitude),"[1]; Subject 11, 114 mg single dose, 12 hrs after adm. (D 1), vs baseline 126 mmHg",−16.7%
same,DP,"[1]; Subject 12, 132 mg single dose, 6 hrs after adm. (D 1), baseline 78 mmHg",59 mmHg
same,SP,"[1]; Subject 12, 132 mg single dose, 6 hrs after adm. (D 1), baseline 123 mmHg",120 mmHg
same,DP (reduce amplitude),"[1]; Subject 12, 132 mg single dose, 6 hrs after adm. (D 1), vs baseline 78 mmHg",−24.4%
same,SP (reduce amplitude),"[1]; Subject 12, 132 mg single dose, 6 hrs after adm. (D 1), vs baseline 123 mmHg",−2.4%
same,DP,"[1]; Subject 12, 132 mg single dose, 12 hrs after adm. (D 1), baseline 78 mmHg",60 mmHg
same,SP,"[1]; Subject 12, 132 mg single dose, 12 hrs after adm. (D 1), baseline 123 mmHg",105 mmHg
same,DP (reduce amplitude),"[1]; Subject 12, 132 mg single dose, 12 hrs after adm. (D 1), vs baseline 78 mmHg",−23.1%
same,SP (reduce amplitude),"[1]; Subject 12, 132 mg single dose, 12 hrs after adm. (D 1), vs baseline 123 mmHg",−14.6%
same,DP,"[1]; Subject 13, 132 mg single dose, 6 hrs after adm. (D 1), baseline 68 mmHg",54 mmHg
same,SP,"[1]; Subject 13, 132 mg single dose, 6 hrs after adm. (D 1), baseline 106 mmHg",97 mmHg
same,DP (reduce amplitude),"[1]; Subject 13, 132 mg single dose, 6 hrs after adm. (D 1), vs baseline 68 mmHg",−20.6%
same,SP (reduce amplitude),"[1]; Subject 13, 132 mg single dose, 6 hrs after adm. (D 1), vs baseline 106 mmHg",−8.5%
same,DP,"[1]; Subject 13, 132 mg single dose, 12 hrs after adm. (D 1), baseline 68 mmHg",56 mmHg
same,SP,"[1]; Subject 13, 132 mg single dose, 12 hrs after adm. (D 1), baseline 106 mmHg",96 mmHg
same,DP (reduce amplitude),"[1]; Subject 13, 132 mg single dose, 12 hrs after adm. (D 1), vs baseline 68 mmHg",−17.6%
same,SP (reduce amplitude),"[1]; Subject 13, 132 mg single dose, 12 hrs after adm. (D 1), vs baseline 106 mmHg",−9.4%
same,effect of a single dose on blood pressure,"[1]; all dose groups (6, 12, 42, 60, 78, 96, 114, 132 mg), especially diastolic pressure",can reduce the blood pressure
same,effect on diastolic pressure,[2],significant effect on reducing diastolic pressure
